Results: patent US20230115945A1, “AMINOPYRIMIDINE COMPOUNDS” (TYRA BIOSCIENCES, INC., priority 2019, published 2023)

Key:
FGFR1 = target: T1, FGFR1 (Homo sapiens, UniProt P11362); test: Kinase binding assay (Kd), FGFR1; conditions: 11-point 3-fold dilution, qPCR readout
T1 construct: made in house; host or cells: E. coli host derived from BL21, infected with T7 phage
Method in brief: (§1)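 Competition binding: kinase-tagged T7 phage, ligand-coated streptavidin beads and an 11-point 3-fold compound series (0.9% DMSO final) were incubated 1 h at room temperature. Bead-bound kinase was eluted and quantified by qPCR. Kd was fitted to the Hill equation with slope fixed at −1.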

FGFR2 = target: T2, FGFR2 (Homo sapiens, UniProt P21802); test: Kinase binding assay (Kd), FGFR2; conditions: 11-point 3-fold dilution, qPCR readout
T2 construct: made in house; host or cells: E. coli host derived from BL21, infected with T7 phage
Method in brief: as §1

[1] = test system: UM-UC-14 cells (Bladder Cancer, FGFR3(S249C)); test: Cancer cell line cell viability assay, UM-UC-14; type: cell-based; conditions: UMUC14; 72 hours, Cell Titer-Glo 2.0; read-out: Cancer Cell Viability Assays UM-UC-14 (IC50 nM)
Excerpt: To detect the change of intracellular ATP by Cell Titer-Glo® and to evaluate the inhibitory effect of the compounds on cancer cell lines by determining the in vitro IC50 value of the compounds.
Cell Titer-Glo® 2.0 Luminescent cell viability assay reagent was purchased from Promega (Madison, Wis.). RT112/84, SNU-16, and KG-1 cell lines were purchased from American Type Culture Collection (Manassas, Va.). UM-UC-14 cell line was purchased from Sigma (St. Louis, Mo.). RT112/84, UM-UC-14, SNU-16, and KG-1 cells were cultured in RPMI1640 media supplemented with 10% fetal bovine serum. Cultures were maintained at 37° C. in a humidified atmosphere of 5% CO2 and 95% air.
(§2) Cell Viability Assay Procedure: Cells were plated in 96-well clear bottom/white plates (Corning #3903) at 10,000 cells/well in 100 μl of media, incubated overnight. The next day, test compound DMSO stock solutions were made at 10 mM and 2 μM final concentration. Compounds were then added to cells in a 9-dose, 10-fold dilution series starting at 30 μM with an HP 300e Digital Dispenser (each dose was applied in triplicate). DMSO was backfilled to each well up to 301 nL total volume of test compound+DMSO, and a total of 301 nL DMSO was added to a control/no test compound well in triplicate. The cells in cell culture plates were incubated with the compounds at 37° C. and 5% CO2 for 72 hours. Then 50 μl of Cell Titer Glo 2.0 reagent was added to each well of the cell culture plates. The contents were covered from light and mixed on an orbital shaker at room temperature for 10 min. Luminescence was recorded by a Synergy H1 Microplate Reader (Biotek, Winooski, Vt.). Cells were assessed as a percentage of DMSO only treated control cells. Curves were plotted and IC50 values were calculated using the GraphPad Prism 8 program based on a sigmoidal dose-response equation (4 parameter).

[2] = test system: SNU-16 cells (Gastric Carcinoma, FGFR2 amplification); test: Cancer cell line cell viability assay, SNU-16; type: cell-based; conditions: Homo sapiens, 72 hours, Cell Titer-Glo 2.0, read-out: Cancer Cell Viability Assays SNU-16 (IC50 nM)
Excerpt: as §2, with “[table] To detect the change of intracellular ATP by Cell Titer-Glo® and to evaluate the inhibitory effect of the compounds on cancer cell lines by determining the in vitro IC50 value of the compounds. Cell Titer-Glo® 2.0 Luminescent cell viability assay reagent was purchased from Promega (Madison, Wis.). RT112/84, SNU-16, and KG-1 cell lines were purchased from American Type Culture Collection (Manassas, Va.). UM-UC-14 cell line was purchased from Sigma (St. Louis, Mo.). RT112/84, UM-UC-14, SNU-16, and KG-1 cells were cultured in RPMI1640 media supplemented with 10% fetal bovine serum. Cultures were maintained at 37° C. in a humidified atmosphere of 5% CO2 and 95% air. Cell Viability” for “Cell Viability”

T2 sequence (P21802 22-821): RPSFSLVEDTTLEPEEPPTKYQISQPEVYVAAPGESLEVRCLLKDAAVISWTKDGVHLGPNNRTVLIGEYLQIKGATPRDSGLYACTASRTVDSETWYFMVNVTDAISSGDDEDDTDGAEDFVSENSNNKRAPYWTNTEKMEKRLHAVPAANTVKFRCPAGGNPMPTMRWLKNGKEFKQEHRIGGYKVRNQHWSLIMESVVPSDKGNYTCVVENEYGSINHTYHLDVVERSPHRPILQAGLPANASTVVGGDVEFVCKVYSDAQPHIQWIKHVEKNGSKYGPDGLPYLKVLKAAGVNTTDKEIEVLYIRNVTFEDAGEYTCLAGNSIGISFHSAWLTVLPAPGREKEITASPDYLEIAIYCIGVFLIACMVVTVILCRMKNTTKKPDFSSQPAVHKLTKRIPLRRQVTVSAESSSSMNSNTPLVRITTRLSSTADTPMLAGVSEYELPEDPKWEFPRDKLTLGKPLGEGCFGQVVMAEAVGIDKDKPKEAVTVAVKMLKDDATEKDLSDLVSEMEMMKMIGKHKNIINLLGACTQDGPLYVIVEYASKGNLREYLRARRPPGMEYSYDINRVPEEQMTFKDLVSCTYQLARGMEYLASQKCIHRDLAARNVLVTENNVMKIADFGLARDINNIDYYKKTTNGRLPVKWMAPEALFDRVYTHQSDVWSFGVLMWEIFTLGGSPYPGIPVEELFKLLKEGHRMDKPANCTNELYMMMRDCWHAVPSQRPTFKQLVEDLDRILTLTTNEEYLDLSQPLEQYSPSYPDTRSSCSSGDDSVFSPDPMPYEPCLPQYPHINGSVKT
T1 sequence (P11362 22-822): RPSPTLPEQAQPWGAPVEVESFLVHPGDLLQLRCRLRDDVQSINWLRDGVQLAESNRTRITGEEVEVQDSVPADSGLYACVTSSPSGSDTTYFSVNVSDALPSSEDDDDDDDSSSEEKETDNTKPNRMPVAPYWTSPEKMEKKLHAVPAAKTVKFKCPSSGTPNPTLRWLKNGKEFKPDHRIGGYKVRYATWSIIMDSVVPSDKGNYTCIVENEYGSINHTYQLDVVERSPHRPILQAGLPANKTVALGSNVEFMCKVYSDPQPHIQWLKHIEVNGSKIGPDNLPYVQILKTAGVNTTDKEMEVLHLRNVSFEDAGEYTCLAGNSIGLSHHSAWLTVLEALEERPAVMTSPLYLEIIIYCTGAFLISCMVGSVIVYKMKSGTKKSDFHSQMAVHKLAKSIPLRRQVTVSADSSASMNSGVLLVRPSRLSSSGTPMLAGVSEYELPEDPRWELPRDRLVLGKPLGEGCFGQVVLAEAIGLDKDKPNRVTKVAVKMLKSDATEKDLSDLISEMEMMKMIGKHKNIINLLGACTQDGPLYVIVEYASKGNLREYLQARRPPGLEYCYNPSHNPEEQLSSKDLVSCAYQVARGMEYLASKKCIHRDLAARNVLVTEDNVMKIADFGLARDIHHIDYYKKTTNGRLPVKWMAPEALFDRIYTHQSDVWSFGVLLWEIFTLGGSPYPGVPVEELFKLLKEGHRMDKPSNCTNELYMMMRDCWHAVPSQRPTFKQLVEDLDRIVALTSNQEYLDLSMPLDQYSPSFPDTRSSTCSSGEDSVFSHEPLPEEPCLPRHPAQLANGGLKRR

Compound	Kd (FGFR1)	Kd (FGFR2)	IC50 [1]	IC50 [2]
C=CC(=O)Nc1ccc2c(c1)c(C)cn2-c1nc(Nc2ccc(N=S(C)(C)=O)c(F)c2)ncc1C#N [Example 62, N-[1-[5-Cyano-2-[4-[[dimethyl(oxo)-λ^6-sulfanylidene]amino]-3-fluoro-anilino]pyrimidin-4-yl]-3-methyl-indol-5-yl]prop-2-enamide]	79 nM	16 nM	152 nM	–
C=CC(=O)Nc1ccc2c(ccn2-c2nc(Nc3ccc(S(C)(=N)=O)cc3)ncc2Cl)c1 (centres unmarked) [Example 70, N-[1-[5-Chloro-2-[4-(methylsulfonimidoyl)anilino]-pyrimidin-4-yl]indol-5-yl]prop-2-enamide]	230 nM	25 nM	34 nM	12 nM
C=CC(=O)Nc1ccc2c(-c3nc(Nc4ccc(N=S(C)(C)=O)cc4)ncc3Cl)cn(C)c2c1 [Example 92, N-[3-[5-chloro-2-[4-[[dimethyl(oxo)-λ^6-sulfanylidene]amino]anilino]pyrimidin-4-yl]-1-methyl-indol-6-yl]prop-2-enamide]	63 nM	13 nM	10 nM	–

Now those with a lower Kd (FGFR1), led by results:

Kd (FGFR1)	Kd (FGFR2)	IC50 [1]	IC50 [2]	Compound
61 nM	37 nM	34 nM	65 nM	C=CC(=O)Nc1ccc2c(ccn2-c2nc(Nc3ccc(N=S(C)(C)=O)cc3)ncc2Cl)c1 [Example 66, N-[1-[5-chloro-2-[4-[[dimethyl(oxo)-λ^6-sulfanylidene]amino]anilino]-pyrimidin-4-yl]indol-5-yl]prop-2-enamide]
21 nM	6 nM	12 nM	–	C=CC(=O)Nc1ccc2c(c1)c(C)cn2-c1nc(Nc2ccc(N=S(C)(C)=O)cc2)ncc1Cl [Example 61, N-[1-[5-Chloro-2-[4-[[dimethyl(oxo)-λ^6-sulfanylidene]amino]anilino]pyrimidin-4-yl]-3-methyl-indol-5-yl]prop-2-enamide]
14 nM	3.2 nM	6 nM	–	C=CC(=O)Nc1ccc2c(c1)c(C)cn2-c1nc(Nc2ccc(N=S(C)(C)=O)c(F)c2)ncc1Cl [Example 60, N-[1-[5-Chloro-2-[4-[[dimethyl(oxo)-λ^6-sulfanylidene]amino]-3-fluoro-anilino]pyrimidin-4-yl]-3-methyl-indol-5-yl]prop-2-enamide]
10 nM	3 nM	3 nM	–	C=CC(=O)Nc1ccc2c(c1)c(C)cn2-c1nc(Nc2ccc(N=S(C)(C)=O)c(F)c2)ncc1C [Example 63, N-[1-[2-[4-[[dimethyl(oxo)-λ^6-sulfanylidene]amino]-3-fluoro-anilino]-5-methyl-pyrimidin-4-yl]-3-methyl-indol-5-yl]prop-2-enamide]
5 nM	4 nM	3 nM	–	C=CC(=O)Nc1ccc2c(c1)c(C)cn2-c1nc(Nc2ccc(N=S(C)(C)=O)c(OC)c2)ncc1Cl [Example 64, N-[1-[5-Chloro-2-[4-[[dimethyl(oxo)-λ^6-sulfanylidene]amino]-3-methoxy-anilino]pyrimidin-4-yl]-3-methyl-indol-5-yl]prop-2-enamide]
